In ChEMBL document CHEMBL1201862, “PubChem BioAssay data set” (2004):
Calls of active or inactive are those of the source.

Columns and labels:
CAAX prenyl protease 2 [1] = target: T1, CAAX prenyl protease 2 (Homo sapiens, UniProt Q9Y256); assay: human Rce1 protease inhibitors, dose response, biochemical, yeast membranes, quenched-peptide fluorescence, cherry-pick (AID 588849)
T1 sequence (Q9Y256 whole entry): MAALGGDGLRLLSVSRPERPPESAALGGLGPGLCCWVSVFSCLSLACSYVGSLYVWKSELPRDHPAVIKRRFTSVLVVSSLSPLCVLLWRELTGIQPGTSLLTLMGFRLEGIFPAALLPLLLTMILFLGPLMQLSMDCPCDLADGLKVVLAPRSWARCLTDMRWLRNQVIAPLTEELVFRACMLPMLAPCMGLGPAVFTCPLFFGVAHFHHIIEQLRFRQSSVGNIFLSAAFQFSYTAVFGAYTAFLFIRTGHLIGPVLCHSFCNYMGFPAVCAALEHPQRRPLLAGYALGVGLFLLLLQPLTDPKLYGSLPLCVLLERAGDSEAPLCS

[2] = target: T2, Alkaline phosphatase, tissue-nonspecific isozyme (Homo sapiens, UniProt P05186); assay: human TNAP enzyme inhibitors, SAR follow-up, biochemical, luminescent, dose response (AID 1056)
T2 sequence (P05186 whole entry): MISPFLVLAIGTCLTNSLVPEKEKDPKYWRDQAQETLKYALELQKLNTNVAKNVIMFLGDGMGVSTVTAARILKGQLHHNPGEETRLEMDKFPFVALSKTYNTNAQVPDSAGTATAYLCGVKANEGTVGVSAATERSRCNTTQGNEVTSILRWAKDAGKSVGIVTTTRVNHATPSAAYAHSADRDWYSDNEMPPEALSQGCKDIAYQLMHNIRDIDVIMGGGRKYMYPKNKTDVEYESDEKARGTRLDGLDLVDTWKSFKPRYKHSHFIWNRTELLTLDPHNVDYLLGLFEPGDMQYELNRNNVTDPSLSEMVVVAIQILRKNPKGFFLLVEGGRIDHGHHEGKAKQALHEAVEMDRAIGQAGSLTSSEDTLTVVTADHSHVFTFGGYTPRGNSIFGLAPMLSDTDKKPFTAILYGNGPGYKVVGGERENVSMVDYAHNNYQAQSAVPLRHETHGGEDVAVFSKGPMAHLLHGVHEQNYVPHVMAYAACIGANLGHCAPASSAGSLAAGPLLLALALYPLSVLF

[3] = target: Glyceraldehyde-3-phosphate dehydrogenase (Homo sapiens, UniProt P04406)
[4] = target: T3, Acyl-homoserine lactone acylase PvdQ (Pseudomonas aeruginosa (strain LESB58), UniProt Q9I194); assay: P. aeruginosa PvdQ acylase inhibitors, dose response, biochemical, fluorescence, plate reader and imaging, cherry-picks (AID 493231)
T3 sequence (Q9I194 whole entry): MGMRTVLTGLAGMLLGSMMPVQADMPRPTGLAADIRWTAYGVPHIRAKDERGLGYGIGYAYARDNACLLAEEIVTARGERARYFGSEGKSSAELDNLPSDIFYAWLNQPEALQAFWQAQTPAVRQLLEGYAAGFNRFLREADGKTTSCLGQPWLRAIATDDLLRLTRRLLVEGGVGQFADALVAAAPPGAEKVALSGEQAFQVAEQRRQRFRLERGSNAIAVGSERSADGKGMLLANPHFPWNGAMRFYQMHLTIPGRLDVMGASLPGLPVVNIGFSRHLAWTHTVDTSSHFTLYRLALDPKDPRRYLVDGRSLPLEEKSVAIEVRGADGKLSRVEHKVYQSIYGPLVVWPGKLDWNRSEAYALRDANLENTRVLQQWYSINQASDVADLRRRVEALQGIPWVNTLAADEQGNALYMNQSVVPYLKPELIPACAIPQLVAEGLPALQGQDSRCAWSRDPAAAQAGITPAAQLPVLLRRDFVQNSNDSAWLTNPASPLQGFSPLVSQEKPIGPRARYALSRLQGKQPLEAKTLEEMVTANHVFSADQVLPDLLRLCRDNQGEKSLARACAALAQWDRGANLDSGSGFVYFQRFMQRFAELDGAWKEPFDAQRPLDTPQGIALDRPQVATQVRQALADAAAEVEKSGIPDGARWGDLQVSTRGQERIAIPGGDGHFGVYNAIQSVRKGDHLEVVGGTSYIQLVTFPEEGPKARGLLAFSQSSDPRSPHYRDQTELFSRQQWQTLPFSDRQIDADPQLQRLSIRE

Trypsin = Trypsin (Sus scrofa, UniProt P00761); assay: porcine trypsin inhibitors, dose response, selectivity assay for Rce1 protease inhibitor project, biochemical, quenched peptide fluorescence, cherry-pick (AID 488789)
[5] = Luminescence Cell-Based Dose Retest to Confirm Inhibitors of Cancer Stem Cells. [Related pubchem assays (depositor defined):AID2717, AID2721]; type: functional; settings: Homo sapiens
CAAX prenyl protease 2 [6] = target: T4, CAAX prenyl protease 2 (Saccharomyces cerevisiae S288c, UniProt Q03530); type: biochemical
T4 sequence (Q03530 whole entry): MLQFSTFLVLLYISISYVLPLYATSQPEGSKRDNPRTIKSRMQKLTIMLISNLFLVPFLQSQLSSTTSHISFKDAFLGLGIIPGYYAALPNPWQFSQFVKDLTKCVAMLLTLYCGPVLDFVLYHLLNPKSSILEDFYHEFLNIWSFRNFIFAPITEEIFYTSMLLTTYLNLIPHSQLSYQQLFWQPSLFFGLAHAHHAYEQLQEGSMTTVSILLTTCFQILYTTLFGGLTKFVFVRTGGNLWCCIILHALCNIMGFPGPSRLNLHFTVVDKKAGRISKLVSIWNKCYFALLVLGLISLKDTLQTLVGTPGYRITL

[7] = target: Eukaryotic translation initiation factor 4E (Mus musculus, UniProt P63073); assay: eIF4E–eIF4G protein interaction inhibitors, dose response, biochemical, TR-FRET (AID 855); type: functional;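 also: potency for disrupting eIF4E binding to eIF4GI seen as loss of FRET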
[8] = target: T5, Polyadenylate-binding protein 1 (Homo sapiens, UniProt P11940); assay: PABP1 MLLE–PAM2 binding inhibitor potency, dose response, biochemical, fluorescence polarization, FITC-PAM2 peptide (AID 602259); type: functional; settings: read-out: IC50_Mean
[9] = target: T5, Polyadenylate-binding protein 1; assay: PABP1 MLLE–PAM2 interaction inhibitors, dose response, miRNA deadenylation inhibitor project, biochemical, fluorescence polarization, Cy5-PAM2 peptide, secondary (AID 602260); type: functional; settings: read-out: IC50_Mean
Estrogen receptor beta = Estrogen receptor beta (Homo sapiens, UniProt Q92731); assay: ERβ–SRC-3 coactivator interaction inhibitors, confirmation, orthogonal assay, biochemical, ELISA, streptavidin-HRP readout (AID 1060)
[10] = target: T6, Mannose-6-phosphate isomerase (Homo sapiens, UniProt P34949); assay: human PMI inhibitors, high substrate, primary screen, biochemical, fluorescence intensity, high mannose 6-phosphate (AID 1220)
T6 sequence (P34949 whole entry): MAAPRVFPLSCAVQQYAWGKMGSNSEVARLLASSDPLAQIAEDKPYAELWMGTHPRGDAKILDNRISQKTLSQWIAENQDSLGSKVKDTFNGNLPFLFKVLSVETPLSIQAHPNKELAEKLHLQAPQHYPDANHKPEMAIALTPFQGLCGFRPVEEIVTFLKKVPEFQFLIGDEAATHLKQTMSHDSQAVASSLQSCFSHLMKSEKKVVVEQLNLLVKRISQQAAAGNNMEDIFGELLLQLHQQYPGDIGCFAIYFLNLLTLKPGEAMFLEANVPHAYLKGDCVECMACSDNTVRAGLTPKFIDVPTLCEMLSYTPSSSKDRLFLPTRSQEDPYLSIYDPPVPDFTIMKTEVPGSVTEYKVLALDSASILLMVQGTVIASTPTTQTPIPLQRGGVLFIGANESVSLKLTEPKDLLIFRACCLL

Nonstructural protein 1 = Nonstructural protein 1 (Influenza A virus, UniProt Q194T2); type: functional, Influenza A virus (A/California/07/2009(H1N1))
Mucolipin-3 = target: T7, Mucolipin-3 (Homo sapiens, UniProt Q8TDD5); assay: Fluorescence counterscreen assay for […] agonists: dose response cell-based high-throughput screening assay to identify agonists of the transient receptor potential channel ML3 (TRPML3). [Related pubchem assays: 1424, 1448 ]; type: functional
T7 sequence (Q8TDD5 whole entry): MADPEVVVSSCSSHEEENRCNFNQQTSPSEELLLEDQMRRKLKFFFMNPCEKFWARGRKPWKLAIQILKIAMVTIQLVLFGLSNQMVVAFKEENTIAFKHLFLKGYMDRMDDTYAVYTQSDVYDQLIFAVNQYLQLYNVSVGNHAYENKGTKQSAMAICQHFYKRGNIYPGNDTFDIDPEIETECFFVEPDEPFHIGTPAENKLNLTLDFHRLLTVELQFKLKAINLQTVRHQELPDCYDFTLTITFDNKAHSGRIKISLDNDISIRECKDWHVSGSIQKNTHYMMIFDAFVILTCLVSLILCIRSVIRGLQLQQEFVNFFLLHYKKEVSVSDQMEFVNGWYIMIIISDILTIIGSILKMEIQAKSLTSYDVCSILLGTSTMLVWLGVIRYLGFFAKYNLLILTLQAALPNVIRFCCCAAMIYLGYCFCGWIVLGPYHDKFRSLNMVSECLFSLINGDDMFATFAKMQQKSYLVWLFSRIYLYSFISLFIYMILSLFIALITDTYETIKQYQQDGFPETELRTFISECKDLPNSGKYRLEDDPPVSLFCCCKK

Ion channel NompC = Ion channel NompC (Danio rerio, UniProt Q7T1G6); assay: Dose response cell-based high-throughput screening assay for agonists of the transient receptor potential channel N1 (TRPN1). [Related pubchem assays (depositor defined):AID1424, AID1448]; type: functional
HEK293 [11] = assay: NOD2 signaling inhibitors in MDP-stimulated cells, cell-based, uHTS, luminescence (AID 2001); type: functional; settings: Homo sapiens
HEK293 [12] = assay: cells; type: functional, cell-based; settings: Homo sapiens
[13] = target: T8, Heat shock factor protein 1 (Mus musculus, UniProt P38532); assay: inhibition of MG132-induced HSE-luciferase signal, confirmation, cell-based, NIH3T3, luminescence, dose retest (AID 2382); type: functional;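 also: NIH3T3 fibroblasts with HSF1-driven luciferase reporter stressed by proteasome inhibitor MG132; luminescence from HSF1-driven luciferase expression after 8 hours of MG132 stress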
T8 sequence (P38532 whole entry): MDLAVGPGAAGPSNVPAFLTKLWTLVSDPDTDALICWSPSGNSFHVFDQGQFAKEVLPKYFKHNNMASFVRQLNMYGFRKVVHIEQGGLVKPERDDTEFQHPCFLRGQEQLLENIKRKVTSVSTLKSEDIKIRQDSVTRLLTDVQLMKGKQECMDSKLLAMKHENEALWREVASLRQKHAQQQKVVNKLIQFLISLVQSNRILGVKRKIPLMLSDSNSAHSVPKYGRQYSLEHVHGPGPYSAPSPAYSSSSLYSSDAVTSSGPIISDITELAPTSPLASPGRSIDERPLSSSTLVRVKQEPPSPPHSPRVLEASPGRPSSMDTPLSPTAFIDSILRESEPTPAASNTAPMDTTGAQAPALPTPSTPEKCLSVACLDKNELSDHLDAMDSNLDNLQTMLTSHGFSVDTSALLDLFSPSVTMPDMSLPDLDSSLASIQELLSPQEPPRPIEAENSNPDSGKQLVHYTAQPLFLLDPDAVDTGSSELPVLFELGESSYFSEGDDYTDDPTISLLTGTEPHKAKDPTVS

[14] = target: Nucleotide-binding oligomerization domain-containing protein 2 (Homo sapiens, UniProt Q9HC29); assay: NOD2 signaling inhibitors, cell-based, luminescence, uHTS, HEK293 (AID 1566); type: functional
HEK293 [15] = assay: NOD1 signaling inhibitors, primary screen, cell-based, luminescence, uHTS (AID 1578); type: functional; settings: Homo sapiens
HEK293 [16] = assay: cells; type: functional, cell-based; settings: Homo sapiens; remark: listed apart in the source
[17] = target: DNA dC->dU-editing enzyme APOBEC-3G (Homo sapiens, UniProt Q9HC16); assay: Dose Response confirmation of small molecule APOBEC3G DNA Deaminase Inhibitors via a fluorescence-based single-stranded DNA deaminase assay. [Related pubchem assays (depositor defined):AID493012, AID493028]; type: functional
Chain of DNA dC->dU-editing enzyme APOBEC-3G (Q9HC16 whole entry): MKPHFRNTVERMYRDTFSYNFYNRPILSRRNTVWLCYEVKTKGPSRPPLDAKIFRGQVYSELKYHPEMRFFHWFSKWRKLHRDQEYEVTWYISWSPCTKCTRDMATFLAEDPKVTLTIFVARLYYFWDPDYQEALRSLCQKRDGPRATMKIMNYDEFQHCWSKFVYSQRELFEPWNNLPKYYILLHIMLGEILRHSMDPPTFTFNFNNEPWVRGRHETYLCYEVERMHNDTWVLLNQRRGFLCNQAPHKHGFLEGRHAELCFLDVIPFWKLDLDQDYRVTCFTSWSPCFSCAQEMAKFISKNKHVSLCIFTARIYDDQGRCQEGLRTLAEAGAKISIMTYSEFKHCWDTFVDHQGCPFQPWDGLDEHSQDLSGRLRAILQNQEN

Chain of Ion channel NompC (Q7T1G6 whole entry): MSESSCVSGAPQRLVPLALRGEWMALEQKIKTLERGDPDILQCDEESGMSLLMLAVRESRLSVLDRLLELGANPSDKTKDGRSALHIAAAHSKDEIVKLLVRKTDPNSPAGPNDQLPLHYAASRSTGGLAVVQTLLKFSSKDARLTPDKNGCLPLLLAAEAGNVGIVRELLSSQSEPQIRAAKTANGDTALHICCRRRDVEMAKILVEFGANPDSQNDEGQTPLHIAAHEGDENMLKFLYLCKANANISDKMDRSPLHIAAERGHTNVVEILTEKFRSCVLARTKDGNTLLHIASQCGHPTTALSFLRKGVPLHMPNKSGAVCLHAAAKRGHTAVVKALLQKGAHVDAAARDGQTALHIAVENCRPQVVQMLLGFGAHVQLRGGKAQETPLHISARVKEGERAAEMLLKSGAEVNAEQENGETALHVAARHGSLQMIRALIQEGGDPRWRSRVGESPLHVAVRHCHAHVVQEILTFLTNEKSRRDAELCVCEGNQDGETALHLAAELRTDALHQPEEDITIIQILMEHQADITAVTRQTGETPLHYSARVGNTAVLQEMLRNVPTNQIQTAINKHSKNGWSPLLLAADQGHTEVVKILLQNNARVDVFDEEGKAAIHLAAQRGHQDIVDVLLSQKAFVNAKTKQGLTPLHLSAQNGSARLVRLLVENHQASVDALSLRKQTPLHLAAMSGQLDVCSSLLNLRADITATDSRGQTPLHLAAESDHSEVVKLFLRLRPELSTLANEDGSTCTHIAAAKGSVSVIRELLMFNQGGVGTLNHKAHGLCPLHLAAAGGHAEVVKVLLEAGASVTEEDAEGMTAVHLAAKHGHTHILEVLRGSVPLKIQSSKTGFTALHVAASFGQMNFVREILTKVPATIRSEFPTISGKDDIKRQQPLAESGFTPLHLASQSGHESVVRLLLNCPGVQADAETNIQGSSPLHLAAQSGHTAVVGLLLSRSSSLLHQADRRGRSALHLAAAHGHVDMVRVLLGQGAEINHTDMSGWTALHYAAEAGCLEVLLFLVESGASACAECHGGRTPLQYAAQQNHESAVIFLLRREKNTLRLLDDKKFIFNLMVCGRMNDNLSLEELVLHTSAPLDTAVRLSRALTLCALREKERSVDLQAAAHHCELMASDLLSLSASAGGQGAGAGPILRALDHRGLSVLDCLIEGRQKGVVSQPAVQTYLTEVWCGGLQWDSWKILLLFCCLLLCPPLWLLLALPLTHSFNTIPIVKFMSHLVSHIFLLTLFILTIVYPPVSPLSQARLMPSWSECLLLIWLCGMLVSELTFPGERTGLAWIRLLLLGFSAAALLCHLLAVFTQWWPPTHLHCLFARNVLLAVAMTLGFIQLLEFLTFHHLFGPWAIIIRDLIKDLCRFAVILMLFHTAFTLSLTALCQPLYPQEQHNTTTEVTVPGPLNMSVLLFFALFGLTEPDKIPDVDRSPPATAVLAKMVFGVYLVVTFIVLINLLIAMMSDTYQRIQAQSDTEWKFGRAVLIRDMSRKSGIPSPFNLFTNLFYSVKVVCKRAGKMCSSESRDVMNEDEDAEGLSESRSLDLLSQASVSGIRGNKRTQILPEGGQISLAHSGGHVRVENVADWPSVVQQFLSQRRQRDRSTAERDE
Chain of Eukaryotic translation initiation factor 4E (P63073 whole entry): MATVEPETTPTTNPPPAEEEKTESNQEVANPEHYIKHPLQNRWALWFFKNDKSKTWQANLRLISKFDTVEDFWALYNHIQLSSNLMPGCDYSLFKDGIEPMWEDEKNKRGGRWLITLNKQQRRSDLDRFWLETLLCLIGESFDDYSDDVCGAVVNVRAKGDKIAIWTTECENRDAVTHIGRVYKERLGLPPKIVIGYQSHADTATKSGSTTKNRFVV
T5 sequence (P11940 whole entry): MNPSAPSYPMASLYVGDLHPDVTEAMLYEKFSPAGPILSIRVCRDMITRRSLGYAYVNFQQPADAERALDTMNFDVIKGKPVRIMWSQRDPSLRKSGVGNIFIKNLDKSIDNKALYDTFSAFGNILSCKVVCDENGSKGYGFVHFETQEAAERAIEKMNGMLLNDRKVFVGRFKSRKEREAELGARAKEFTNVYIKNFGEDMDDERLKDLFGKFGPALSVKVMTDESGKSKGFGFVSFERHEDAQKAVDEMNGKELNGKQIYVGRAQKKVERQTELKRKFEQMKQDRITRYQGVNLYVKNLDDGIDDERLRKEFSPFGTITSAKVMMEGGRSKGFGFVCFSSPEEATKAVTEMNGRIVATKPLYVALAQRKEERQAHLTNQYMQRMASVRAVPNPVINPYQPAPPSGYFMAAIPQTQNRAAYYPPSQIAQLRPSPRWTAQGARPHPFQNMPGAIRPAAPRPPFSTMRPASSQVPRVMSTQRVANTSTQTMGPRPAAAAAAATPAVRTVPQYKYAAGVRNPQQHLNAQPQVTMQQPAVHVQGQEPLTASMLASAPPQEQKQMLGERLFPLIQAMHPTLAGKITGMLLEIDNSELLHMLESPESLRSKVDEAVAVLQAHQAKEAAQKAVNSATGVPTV
Chain of Glyceraldehyde-3-phosphate dehydrogenase (P04406 whole entry): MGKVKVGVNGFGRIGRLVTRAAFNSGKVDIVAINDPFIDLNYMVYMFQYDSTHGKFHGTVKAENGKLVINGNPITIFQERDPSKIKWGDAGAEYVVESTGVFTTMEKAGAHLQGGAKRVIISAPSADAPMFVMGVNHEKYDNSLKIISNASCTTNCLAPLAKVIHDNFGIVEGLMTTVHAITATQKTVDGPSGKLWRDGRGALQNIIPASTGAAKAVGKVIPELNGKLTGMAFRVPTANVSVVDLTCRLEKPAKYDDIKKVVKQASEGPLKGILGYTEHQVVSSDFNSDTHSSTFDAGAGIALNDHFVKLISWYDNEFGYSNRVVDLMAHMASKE
Chain of Estrogen receptor beta (Q92731 whole entry): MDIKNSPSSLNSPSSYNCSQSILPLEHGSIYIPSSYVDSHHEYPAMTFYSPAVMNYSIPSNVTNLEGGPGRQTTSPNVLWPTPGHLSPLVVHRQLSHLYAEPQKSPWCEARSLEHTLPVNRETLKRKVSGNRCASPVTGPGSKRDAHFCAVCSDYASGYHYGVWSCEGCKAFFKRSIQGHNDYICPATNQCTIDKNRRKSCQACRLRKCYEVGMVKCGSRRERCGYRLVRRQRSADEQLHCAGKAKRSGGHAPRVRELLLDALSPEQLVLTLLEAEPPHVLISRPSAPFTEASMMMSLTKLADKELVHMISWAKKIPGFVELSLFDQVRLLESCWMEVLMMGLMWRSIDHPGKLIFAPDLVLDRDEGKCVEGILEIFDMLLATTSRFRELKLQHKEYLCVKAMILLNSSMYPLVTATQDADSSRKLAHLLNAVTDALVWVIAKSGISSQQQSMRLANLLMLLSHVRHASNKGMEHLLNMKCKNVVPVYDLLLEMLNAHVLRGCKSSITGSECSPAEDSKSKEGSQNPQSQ
Chain of Nonstructural protein 1 (Q194T2 whole entry): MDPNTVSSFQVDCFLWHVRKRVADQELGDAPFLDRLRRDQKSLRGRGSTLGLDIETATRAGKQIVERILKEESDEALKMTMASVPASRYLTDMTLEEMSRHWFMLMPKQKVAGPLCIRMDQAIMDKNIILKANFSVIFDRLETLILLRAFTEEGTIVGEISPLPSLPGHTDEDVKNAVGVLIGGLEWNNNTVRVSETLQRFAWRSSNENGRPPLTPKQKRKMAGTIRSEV
Chain of Nucleotide-binding oligomerization domain-containing protein 2 (Q9HC29 whole entry, the tested form may be a part): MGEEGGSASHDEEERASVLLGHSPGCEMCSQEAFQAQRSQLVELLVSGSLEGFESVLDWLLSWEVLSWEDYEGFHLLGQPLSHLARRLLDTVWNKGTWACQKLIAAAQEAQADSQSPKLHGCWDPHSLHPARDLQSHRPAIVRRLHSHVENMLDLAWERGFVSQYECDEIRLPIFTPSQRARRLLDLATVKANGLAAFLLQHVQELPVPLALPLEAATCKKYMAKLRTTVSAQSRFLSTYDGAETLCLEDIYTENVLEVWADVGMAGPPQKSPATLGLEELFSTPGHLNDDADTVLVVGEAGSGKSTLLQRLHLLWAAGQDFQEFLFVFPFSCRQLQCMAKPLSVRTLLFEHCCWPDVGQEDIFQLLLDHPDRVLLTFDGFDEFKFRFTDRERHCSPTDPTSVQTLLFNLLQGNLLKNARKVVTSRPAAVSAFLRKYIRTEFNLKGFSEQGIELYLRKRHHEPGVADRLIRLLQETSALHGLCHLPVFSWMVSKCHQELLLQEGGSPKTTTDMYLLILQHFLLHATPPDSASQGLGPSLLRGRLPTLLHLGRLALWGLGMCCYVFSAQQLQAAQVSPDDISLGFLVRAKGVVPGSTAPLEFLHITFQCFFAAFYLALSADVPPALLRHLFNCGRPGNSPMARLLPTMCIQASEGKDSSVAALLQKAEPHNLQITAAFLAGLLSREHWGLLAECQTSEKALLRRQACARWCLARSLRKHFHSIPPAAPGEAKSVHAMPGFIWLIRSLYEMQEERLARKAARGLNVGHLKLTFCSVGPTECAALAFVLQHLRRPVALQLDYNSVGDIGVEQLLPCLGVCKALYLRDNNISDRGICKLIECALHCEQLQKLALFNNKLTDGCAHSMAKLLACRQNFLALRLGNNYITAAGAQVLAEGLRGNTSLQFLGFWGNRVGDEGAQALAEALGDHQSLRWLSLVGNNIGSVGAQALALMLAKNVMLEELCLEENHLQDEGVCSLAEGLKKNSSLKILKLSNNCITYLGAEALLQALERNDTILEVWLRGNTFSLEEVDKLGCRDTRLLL

COC(=O)Cn1c(CCC(=O)O)ccc1-c1ccccc1
AC50 (CAAX prenyl protease 2 [1]): 32.7 µM (active)

COC(=O)c1cc(-c2ccc(Br)cc2)on1
IC50 [2]: > 100 µM (inactive)
IC50 [3]: > 100 µM (not active)
AC50 [4]: 4.37 µM (active)

CS(=O)(=O)Nc1ccccc1C(=O)Nc1cccc(Cl)c1
AC50 (Trypsin): 6.73 µM (active)
AC50 [5]: 45.2 µM (active)
AC50 (CAAX prenyl protease 2 [6]): 21.8 µM (active)

CCOC(=O)N1CCN(C(c2cccnc2)c2ccc3cccnc3c2O)CC1 (configuration not stated)
IC50 [7]: > 64 µM (inactive)
IC50 [8]: > 66 µM (inactive)
IC50 [9]: > 66 µM (inactive)
IC50 (Estrogen receptor beta): 10.6 µM (not active)
IC50 [10]: 32 µM (active)
IC50 (Nonstructural protein 1): 14.6 µM (active)

O=C(OCc1cc(=O)n2c(n1)sc1ccccc12)c1ccc(O)cc1O
IC50 [7]: 50 µM (inactive)

S=C(NCCCc1ccccc1)Nc1ccccc1Cl
EC50 (Mucolipin-3): > 29.9 µM (not active)
EC50 (Ion channel NompC): > 29.9 µM (inactive)

CCOc1ccccc1-n1c(SCC(=O)Nc2ccccc2C(=O)O)nc2ccccc2c1=O
IC50 (HEK293 [11]): > 20 µM (inactive)
IC50 (HEK293 [12]): > 20 µM (inactive)
EC50 [13]: 4.46 µM (active)
EC50 [14]: > 20 µM (inactive)
EC50 (HEK293 [15]): > 20 µM (inactive)
IC50 (HEK293 [16]): > 20 µM (inactive)

CCn1c(N)c(C(=O)NCC2CCCO2)sc1=S (configuration not stated)
IC50 [17]: 66.6 µM (active)

O=[N+]([O-])c1ccc(Oc2ccc(S(=O)(=O)Nc3ccccc3)cc2)cc1
EC50 (Mucolipin-3): > 29.9 µM (not active)
EC50 (Ion channel NompC): > 29.9 µM (inactive)

COc1ccc(Br)cc1S(=O)(=O)n1cc(C(N)=O)c2ccccc21
IC50 [2]: > 100 µM (inactive)
IC50 [3]: > 100 µM (not active)
